The text below walks through data of patent US10975068B2, “6-aminopyridin-3-yl thiazoles as modulators of RORγT” (Janssen Pharmaceutica NV, priority 2016, dated 2021).

Usually Kd stands for the free concentration of one partner at which half of the binding sites on the other are occupied at equilibrium, for simple one-to-one binding. A word on the IC50: it is the concentration that gives 50% inhibition. The term inhibition denotes the drop in the measured response relative to a control, in per cent.

Where two headings read alike, the source gives them in different places.

For test [1], the target named is human RORγt ligand binding domain (RORγt LBD) (Homo sapiens (Human), UniProt P51449). Description: RORγt ThermoFluor® assay (thermal shift binding). Particulars: read-out: ThermoFluor® Assay, Kd. In outline: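 His-tagged human RORγt LBD (0.065 mg/mL) with 60 μM 1,8-ANS in 100 mM Hepes pH 7.0, 10 mM NaCl, 2.5 mM GSH, 0.002% Tween-20 was heated at 1 °C/min.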
human RORγt ligand binding domain (RORγt LBD), sequence (P51449 other isoform, or with tags, fused parts or gaps): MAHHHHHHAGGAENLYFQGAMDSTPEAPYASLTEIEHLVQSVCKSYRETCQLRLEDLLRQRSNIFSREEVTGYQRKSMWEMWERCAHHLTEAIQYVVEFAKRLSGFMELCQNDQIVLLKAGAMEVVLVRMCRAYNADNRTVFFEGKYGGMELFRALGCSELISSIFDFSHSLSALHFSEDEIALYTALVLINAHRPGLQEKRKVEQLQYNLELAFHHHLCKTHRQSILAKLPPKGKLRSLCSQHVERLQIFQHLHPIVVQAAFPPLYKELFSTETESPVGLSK
(In general: DSF heats the sample and reads unfolding from a dye or from intrinsic fluorescence.)

Test [2] has as its target full-length human RORγt (Homo sapiens (Human), UniProt P51449). Description: RORγt (full-length human) reporter assay, Conditions B or C. It counts as cell-based. Particulars: for RORγt (FL) Reporter Assay B or C, % inhibition (value marked *): marked *: footnote not given; for IC50: read-out: RORγt (FL) Reporter Assay B or C, IC50; for inhibition at 1 µM: at 1 μM compound concentration; for inhibition at 1 µM / inhibition at 3 µM: read-out: RORγt (FL) Reporter Assay B or C, % inhibition; for inhibition at 3 µM: at 3 μM compound concentration. In a few lines:
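HEK293T cells transiently co-transfected with GAL4-DBD–full-length human RORγt (nt 142-1635, NM_001001523.1) plus GAL4-firefly and CMV-Renilla luciferase reporters; compounds added 4-6 h post-transfection for 16-20 h in 1.3% FBS, 0.1% DMSO. Firefly signal normalized to DMSO and saturating reference compound, then to Renilla; IC50 from concentration plots.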

full-length human RORγt, sequence (P51449 other isoform, or with tags, fused parts or gaps): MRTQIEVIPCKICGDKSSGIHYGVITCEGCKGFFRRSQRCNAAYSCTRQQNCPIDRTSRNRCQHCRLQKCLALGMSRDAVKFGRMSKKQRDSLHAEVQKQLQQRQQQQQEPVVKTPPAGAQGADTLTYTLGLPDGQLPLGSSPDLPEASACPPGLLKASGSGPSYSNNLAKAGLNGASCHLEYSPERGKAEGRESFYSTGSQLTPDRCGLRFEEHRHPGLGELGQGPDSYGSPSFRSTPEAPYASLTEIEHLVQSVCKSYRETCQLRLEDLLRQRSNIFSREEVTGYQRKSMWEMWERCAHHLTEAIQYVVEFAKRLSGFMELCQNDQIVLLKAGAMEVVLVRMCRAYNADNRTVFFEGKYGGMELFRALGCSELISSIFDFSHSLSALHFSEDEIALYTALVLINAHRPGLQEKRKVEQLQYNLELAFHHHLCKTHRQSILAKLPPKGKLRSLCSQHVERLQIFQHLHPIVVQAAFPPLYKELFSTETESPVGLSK

For `C[C@H]1CC(F)(F)CN1C(=O)c1nc(C(=O)NCC(C)(C)O)sc1-c1cnc(NCC(C)(C)C(F)(F)F)cc1C(F)(F)F` [Example 121, (S)-4-(4,4-Difluoro-2-methylpyrrolidine-1-carbonyl)-N-(2-hydroxy-2-methylpropyl)-5-(6-((3,3,3-trifluoro-2,2-dimethylpropyl)amino)-4-(trifluoromethyl)pyridin-3-yl)thiazole-2-carboxamide], the dissociation constant (Kd) in test [1] came out at 0.00065 µM. In test [2] (Conditions B or C), the “RORγt (FL) Reporter Assay B or C, % inhibition (value marked *)” value (from here on “RORγt … % inhibition (value marked *)”) is recorded as 104* % and the IC50 amounted to 0.025 µM.

Take `C[C@H](CO)NC(=O)c1nc(C(=O)N2CCC[C@@H]2C)c(-c2cnc(NC(C)(C)C)cc2C(F)F)s1` [Example 148, 5-(6-(tert-Butylamino)-4-(difluoromethyl)-3-pyridyl)-N-((1R)-2-hydroxy-1-methyl-ethyl)-4-((2S)-2-methylpyrrolidine-1-carbonyl)thiazole-2-carboxamide]: the dissociation constant (Kd) in test [1] was determined as 0.0064 µM. In test [2] (Conditions B or C), the “RORγt … % inhibition (value marked *)” value was 95* % and the IC50 was determined as 0.025 µM.

As to `C[C@H]1CCCN1C(=O)c1nc(C(=O)N2CC[C@](C)(O)C2)sc1-c1cnc(NC(C)(C)C)cc1C(F)(F)F` (relative stereo) [Example 365, (5-(6-(tert-Butylamino)-4-(trifluoromethyl)pyridin-3-yl)-2-((S*)-3-hydroxy-3-methylpyrrolidine-1-carbonyl)thiazol-4-yl)((S)-2-methylpyrrolidin-1-yl)methanone], the equilibrium dissociation constant (Kd) in test [1] was determined as 0.0081 µM. Further, in test [2], the inhibition at 1 µM is 92% and the IC50 worked out at 0.052 µM.

Turning to `CC[C@H](Nc1cc(C(F)F)c(-c2sc(C(=O)N[C@@H](C)C(C)(C)O)nc2C(=O)N2CC(F)(F)C[C@@H]2C)cn1)C(F)(F)F` [Example 246, 4-[(2S)-4,4-Difluoro-2-methyl-pyrrolidine-1-carbonyl]-5-[4-(difluoromethyl)-6-[[(1S)-1-(trifluoromethyl)propyl]amino]-3-pyridyl]-N-[(1S)-2-hydroxy-1,2-dimethyl-propyl]thiazole-2-carboxamide], in test [1], the Kd was 0.0013 µM. In test [2] (Conditions B or C, marked ***: footnote not given), the “RORγt (FL) Reporter Assay B or C, % inhibition (value marked ***)” value is 112*** %. Further, the IC50 in test [2] (Conditions B or C) came to 0.011 µM.

With `C[C@H]1CCCN1C(=O)c1nc(C(=O)NC[C@@H](O)CO)sc1-c1cnc(NC(C)(C)C)cc1C(F)(F)F` [Example 345, 5-[6-(tert-Butylamino)-4-(trifluoromethyl)-3-pyridyl]-N-[(2R)-2,3-dihydroxypropyl]-4-[(2S)-2-methylpyrrolidine-1-carbonyl]thiazole-2-carboxamide], the Kd in test [1] amounted to 0.016 µM. In addition, in test [2], the inhibition at 3 µM is 111% and the IC50 was determined as 0.063 µM.

`C[C@H]1CCCN1C(=O)c1nc(C(=O)NCC(C)(C)O)sc1-c1cnc(NCC2(C(F)(F)F)CC2)cc1C(F)F` [Example 276, 5-[4-(Difluoromethyl)-6-[[1-(trifluoromethyl)cyclopropyl]methylamino]-3-pyridyl]-N-(2-hydroxy-2-methyl-propyl)-4-[(2S)-2-methylpyrrolidine-1-carbonyl]thiazole-2-carboxamide]: in test [1], the Kd came to 0.0061 µM. Besides, in test [2], the inhibition at 1 µM came out at 118% and the concentration for half-maximal inhibition (IC50) came to 0.016 µM.

`CC(C)(O)CNC(=O)c1nc(C(=O)N2C3CCC2CC3)c(-c2cnc(NC(C)(C)C3CC3)cc2C(F)F)s1` [Example 97, 4-((1s,4s)-7-Azabicyclo[2.2.1]heptane-7-carbonyl)-5-(6-((2-cyclopropylpropan-2-yl)amino)-4-(difluoromethyl)pyridin-3-yl)-N-(2-hydroxy-2-methylpropyl)thiazole-2-carboxamide]: in test [1], the Kd turned out to be 0.0013 µM. Also, in test [2] (Conditions B or C), the “RORγt … % inhibition (value marked *)” value was 111* % and the IC50 came out at 0.0036 µM.

For `C[C@H]1CC(F)(F)CN1C(=O)c1nc(C(=O)NCC(C)(C)O)sc1-c1cnc(NC2(C)CCC2)cc1C(F)F` [Example 168], in test [1], the dissociation constant Kd came out at 0.0018 µM. In test [2] (Conditions B or C), the “RORγt … % inhibition (value marked *)” value was 106* % and the 50% inhibitory concentration (IC50) worked out at 0.2 µM.

Turning to `C[C@H]1CC(F)(F)CN1C(=O)c1nc(C(=O)NCC(C)(C)O)sc1-c1cnc(NCC2(C(F)(F)F)CCC2)cc1C(F)F` [Example 273, 4-[(2S)-4,4-Difluoro-2-methyl-pyrrolidine-1-carbonyl]-5-[4-(difluoromethyl)-6-[[1-(trifluoromethyl)cyclobutyl]methylamino]-3-pyridyl]-N-(2-hydroxy-2-methyl-propyl)thiazole-2-carboxamide], in test [1], the Kd came to 0.00051 µM. Also, in test [2], the inhibition at 3 µM was found to be 102% and the IC50 turned out to be 0.0052 µM.

Consider `CC[C@H](Nc1cc(C(F)F)c(-c2sc(C(=O)N3CC4(CCO4)C3)nc2C(=O)N2CCC[C@@H]2C)cn1)C(F)(F)F` [Example 385, [5-[4-(Difluoromethyl)-6-[[(1S)-1-(trifluoromethyl)propyl]amino]-3-pyridyl]-2-(3-oxa-6-azaspiro[3.3]heptane-6-carbonyl)thiazol-4-yl]-[(2S)-2-methylpyrrolidin-1-yl]methanone], for which the Kd in test [1] was found to be 0.1 µM. Besides, in test [2], the inhibition at 3 µM came out at 95% and the concentration for half-maximal inhibition (IC50) turned out to be 0.35 µM.

Regarding `C[C@H]1CCCN1C(=O)c1nc(C(=O)N[C@H](C)C(C)(C)O)sc1-c1cnc(NCC(C)(C)C)cc1C(F)F` [Example 343, 5-[4-(Difluoromethyl)-6-(2,2-dimethylpropylamino)-3-pyridyl]-N-[(1R)-2-hydroxy-1,2-dimethyl-propyl]-4-[(2S)-2-methylpyrrolidine-1-carbonyl]thiazole-2-carboxamide], the dissociation constant Kd in test [1] came to 0.0051 µM. For the same molecule, in test [2], the inhibition at 3 µM came to 98% and the IC50 came to 0.31 µM.

With `C[C@H]1CCCN1C(=O)c1nc(C(=O)N2C[C@@H]3C[C@H]2CO3)sc1-c1cnc(NC(C)(C)C)cc1C(F)(F)F` [Example 360, [5-[6-(tert-Butylamino)-4-(trifluoromethyl)-3-pyridyl]-2-[(1S,4S)-2-oxa-5-azabicyclo[2.2.1]heptane-5-carbonyl]thiazol-4-yl]-[(2S)-2-methylpyrrolidin-1-yl]methanone], the dissociation constant Kd in test [1] was determined as 0.01 µM. Moreover, in test [2], the inhibition at 3 µM turned out to be 106% and the concentration for half-maximal inhibition (IC50) turned out to be 0.082 µM.

Turning to `C[C@H](Nc1cc(C(F)F)c(-c2sc(C(=O)NC3CCS(=O)(=O)CC3)nc2C(=O)N2CCC[C@@H]2C)cn1)C(F)(F)F` [Example 187, 5-(4-(Difluoromethyl)-6-(((S)-1,1,1-trifluoropropan-2-yl)amino)pyridine-3-yl)-N-(1,1-dioxidotetrahydro-2H-thiopyran-4-yl)-4-((S)-2-methylpyrrolidine-1-carbonyl)thiazole-2-carboxamide], in test [1], the dissociation constant (Kd) worked out at 0.0068 µM. Further, in test [2] (Conditions B or C), the “RORγt … % inhibition (value marked *)” value is 85* % and the IC50 is 0.14 µM.

Turning to `C[C@H]1CC(F)(F)CN1C(=O)c1nc(C(=O)NC2CCS(=O)(=O)CC2)sc1-c1cnc(NC(C)(C)C)cc1C(F)F` [Example 431, 5-[6-(tert-Butylamino)-4-(difluoromethyl)-3-pyridyl]-4-[(2S)-4,4-difluoro-2-methyl-pyrrolidine-1-carbonyl]-N-(1,1-dioxothian-4-yl)thiazole-2-carboxamide], the equilibrium dissociation constant (Kd) in test [1] was 0.00036 µM. For the same molecule, in test [2], the inhibition at 3 µM was found to be 107% and the IC50 was 0.02 µM.

Regarding `CC[C@H](Nc1cc(C(F)F)c(-c2sc(C(=O)N[C@@H]3COC[C@H]3O)nc2C(=O)N2C3CCC2CC3)cn1)C(F)(F)F` [Example 208, 4-((1s,4s)-7-Azabicyclo[2.2.1]heptane-7-carbonyl)-5-(4-(difluoromethyl)-6-(((1S)-1-(trifluoromethyl)propyl)amino)-3-pyridyl)-N-((3R,4S)-4-hydroxytetrahydrofuran-3-yl)thiazole-2-carboxamide], the dissociation constant (Kd) in test [1] stood at 0.0044 µM. In test [2] (Conditions B or C), the “RORγt … % inhibition (value marked *)” value is given as 101* % and the IC50 is 0.054 µM.

In the case of `C[C@H]1CCCN1C(=O)c1nc(C(=O)N2CC[C@@](C)(O)C2)sc1-c1cnc(NC(C)(C)C)cc1C(F)(F)F` (relative stereo) [Example 366, (5-(6-(tert-Butylamino)-4-(trifluoromethyl)pyridin-3-yl)-2-((R*)-3-hydroxy-3-methylpyrrolidine-1-carbonyl)thiazol-4-yl)-((S)-2-methylpyrrolidin-1-yl)methanone], the Kd in test [1] worked out at 0.01 µM. Further, in test [2], the inhibition at 3 µM was 97% and the IC50 was 0.063 µM.

Consider `C[C@H]1CCCN1C(=O)c1nc(C(=O)NC2CCOCC2)sc1-c1cnc(NC(C)(C)C)cc1C(F)F` [Example 412, 5-[6-(tert-Butylamino)-4-(difluoromethyl)-3-pyridyl]-4-[(2S)-2-methylpyrrolidine-1-carbonyl]-N-tetrahydropyran-4-yl-thiazole-2-carboxamide], for which the Kd in test [1] is 0.0034 µM. In addition, in test [2], the inhibition at 3 µM was found to be 127% and the half-maximal inhibitory concentration (IC50) was found to be 0.037 µM.

Consider `CC[C@H](Nc1cc(C(F)F)c(-c2sc(C(=O)N[C@@H](C)C(C)(C)O)nc2C(=O)N2CCCC[C@@H]2C)cn1)C(F)(F)F` [Example 247, 5-[4-(Difluoromethyl)-6-[[(1S)-1-(trifluoromethyl)propyl]amino]-3-pyridyl]-N-[(1S)-2-hydroxy-1,2-dimethyl-propyl]-4-[(2S)-2-methylpiperidine-1-carbonyl]thiazole-2-carboxamide], for which the Kd in test [1] is 0.00028 µM. Moreover, in test [2] (Conditions B or C), the “RORγt … % inhibition (value marked *)” value is 100* % and the IC50 worked out at 0.023 µM.
